ChEMBL document CHEMBL1143302, “Identification of 3-amido-4-anilinoquinolines as potent and selective inhibitors of CSF-1R kinase” (Bioorg Med Chem Lett, 2009)

Legend:
Type in all cases: ADME, organism-based
[1] = Clearance in rat at 3 mg/kg, iv and 10 mg/kg, po; conditions: in vivo
[2] = Volume of distribution at steady state in rat at 3 mg/kg, iv and 10 mg/kg, po; conditions: in vivo, read-out: Vdss
[3] = Half life in rat at 3 mg/kg, iv and 10 mg/kg, po; conditions: in vivo
[4] = Bioavailability in rat at 3 mg/kg, iv and 10 mg/kg, po; conditions: in vivo

Structure (SMILES)	clearance [1]	Vd [2]	half-life [3]	bioavailability [4]
COc1cc2c(Nc3ccc(F)cc3F)c(C(N)=O)cnc2cc1NCCN(C)C	13.2 L/h/kg	36 L/kg	1.9 h	
COc1cc2ncc(C(N)=O)c(Nc3cccc(Cl)c3Cl)c2cc1NCCN1CCCCC1	4.68 L/h/kg	8.5 L/kg	1.6 h	
COc1cc2ncc(C(N)=O)c(Nc3ccc(F)c(Cl)c3)c2cc1OC	3.54 L/h/kg	1.8 L/kg	0.6 h	24%
COc1cc2c(Nc3ccc(F)c(Cl)c3)c(C(N)=O)cnc2cc1OCCN(C)C	12.6 L/h/kg	40 L/kg	2.1 h	
COc1cc2ncc(C(N)=O)c(Nc3cccc(Cl)c3Cl)c2cc1OC	6.9 L/h/kg	4.1 L/kg	0.5 h	
COc1cc2c(Nc3cccc(Cl)c3Cl)c(C(N)=O)cnc2cc1NCCN(C)C	5.4 L/h/kg	19 L/kg	2.4 h	
COc1cc2c(Nc3ccc(F)c(Cl)c3)c(C(N)=O)cnc2cc1OCCN1CCCC1	16.2 L/h/kg	52 L/kg	2.4 h	

More lines, now with the values ahead:

clearance [1]	Vd [2]	half-life [3]	bioavailability [4]	Structure (SMILES)
6.6 L/h/kg	12 L/kg	1.6 h		CCOc1cc2ncc(C(N)=O)c(Nc3cccc(Cl)c3Cl)c2cc1NCCN1CCCCC1
0.42 L/h/kg	0.3 L/kg	0.9 h	96%	COc1cc2ncc(C(N)=O)c(Nc3ccc(F)cc3)c2cc1OC
13.8 L/h/kg	30 L/kg	1.7 h		COc1cc2c(Nc3ccc(F)c(Cl)c3)c(C(N)=O)cnc2cc1OCCNC1CC1
